Experimental data: US20260176594A1, “REDUCING DISEASE TRANSMISSION OF VECTOR BORNE DISEASES” (priority 2022, published 2026)

Test system: Zika virus
Experiment: Zika virus replication in Aedes aegypti mosquitoes fed blood meal with harmane, plaque assay on VERO cells
Format: in vivo
Conditions: harmane in infectious blood meal, 7 days; for Zika virus PFU/mL in mosquito abdomens: vs control group
Description: 3-to-5-day-old Aedes aegypti strain SBE mosquitoes were fed via membrane feeders on a blood meal (rabbit blood) containing approximately 10^7 PFU/ml Zika virus and the indicated concentrations of harmane dissolved in dimethyl sulphoxide (DMSO). The bloodmeal fed to the control group contained no harmane. Fully engorged mosquitoes were selected and kept on a 10% sucrose diet. In total, 30 mosquitoes were analyzed per treatment.
After 7 days, the abdomens of mosquitoes were dissected and placed in 2 mL tubes containing glass beads and 300 μL of DMEM medium. Samples were homogenized. A 1:10 dilution series of this solution was dispersed onto 96-well plates containing VERO cells. 5-6 days later, the medium was discarded and viral plaques were fixed and developed with staining reagent (1% crystal violet in […] solution) at room temperature for 1 h. 5
Plates were rinsed with distilled water and air-dried. Plaques were counted and multiplied by the corresponding dilution factors to calculate the number of plaque-forming units (PFUs). Horizontal red lines are median values. […] Statistical differences were assessed using the nonparametric Mann-Whitney test.

## Cc1nccc2c1[nH]c1ccccc12 [harmane, 1-Methyl-9H-pyrido[3,4-b]indole]
  statistical difference of treated groups compared to the DMSO-control (Mann-Whitney): No significant differences
  Zika virus PFU/mL in mosquito abdomens: reduced level
Listed as Harmane
  Zika virus PFU/mL in mosquito abdomens: dose dependent decrease
